Test results: US11304957B2, “Substituted quinazolines for inhibiting kinase activity” (NeuPharma, Inc., priority 2013, dated 2022)
pIC50: −log10 of the molar value. Blank lines part the entries; values can stand above or below the molecule they belong to.

Experiments:
EGFR (ErbB1) T790M L858R = EGFR (ErbB1) T790M L858R (Homo sapiens (Human), UniProt P00533, L858R/T790M); assay: Z'-LYTE kinase inhibition assay, EGFR L858R/T790M; format: biochemical; conditions: for inhibition at 0.0137 µM: read-out: % inhibition EGFR L858R/T790M (Compound at 0.0137 μM)
Procedure: Inhibitory activities of compounds against BTK, EGFR and EGFR mutants (EGFR L858R, EGFR T790M, EGFR L858R/T790M), FGFR1, FGFR2, JAK2, JAK3 and KDR were measured by Invitrogen using Z'-LYTE® Method as briefly described in the following. Test Compounds are screened in 1% DMSO (final) in the well. For 10 point titrations, 3-fold serial dilutions are conducted from the starting concentration. All ATP Solutions are diluted to a 4× working concentration in Kinase Buffer (50 mM HEPES pH 7.5, 0.01% BRIJ-35, 10 mM MgCl2, 1 mM EGTA). Peptide/Kinase Mixtures are diluted to a 2× working concentration in the appropriate Kinase Buffers as described below. (iv) Peptide/Kinase Mixtures for Measurement of EGFR (ErbB1) T790M L858R: The 2×EGFR (ErbB1) […] mixture is prepared in 50 mM HEPES pH 6.5, 0.01% BRIJ-35, 10 mM MgCl2, 1 mM EGTA, 0.02% NaN3. […] After the 1 hour Kinase Reaction incubation, 5 μL of a 1:64 dilution of Development Reagent B is added. Reaction starts by 30-second shaking of mixture consisting of 2.5 μL 4× test compound, 5 μL 2× kinase reaction mixture and 2.5 μL 4×ATP Solution on Bar-coded Corning, low volume NBS, black 384-well plate (Corning Cat. #3676). Then the mixture is incubated for 60-minute at room temperature for the kinase reaction, followed by addition of 5 μL of a 1:1024 dilution of development reagent A and 30-second plate shake. The mixture is then incubated for another 60-minute at room temperature for development reaction. Finally fluorescence is read by plate reader. To determine IC50 of a compound against EGFR, EGFR mutant and other kinases, a series of concentrations of the compound were tested for the inhibition.

H1975 tumor xenograft = assay: Inhibition of tumor growth in H1975 xenograft model; format: in vivo, BALB/c female nude mice; conditions: Table 7, 60 mg/kg, oral, QD × 14; for Tumor Volume Pre-treatment: baseline
Procedure: H1975 cells were implanted in BALB/c female nude mice and grown as tumor xenografts. When tumors achieved 120-200 mm^3, mice were assigned into treatment and control groups using randomized block design based upon their tumor volumes. Each group contained 6 tumor-bearing mice. Tumors were measured twice weekly in two dimensions using a caliper, and the tumor volume was calculated from two-dimensional measurements using the equation V=0.5×a×b^2 where a and b are the long and short diameters of the tumor, respectively. Relative tumor volume (RTV) was defined as TVt/TVi, the ratio of the volume on a given day (TVt) and the volume at the start of treatment (TVi). Relative tumor growth rate (T/C) was defined as RTVT/RTVC, the ratio of relative tumor volume of treatment group (RTVT) and relative tumor volume of control group (RTVC) on a given day. Inhibition of tumor growth in a H1975 tumor xenograft model by some compounds is shown below in Table 6 and Table 7.

EGFR (ErbB1) = EGFR (ErbB1) (Homo sapiens (Human), UniProt P00533); assay: Z'-LYTE kinase inhibition assay, EGFR (ErbB1); format: biochemical
Procedure: Inhibitory activities of compounds against BTK, EGFR and EGFR mutants (EGFR L858R, EGFR T790M, EGFR L858R/T790M), FGFR1, FGFR2, JAK2, JAK3 and KDR were measured by Invitrogen using Z'-LYTE® Method as briefly described in the following. Test Compounds are screened in 1% DMSO (final) in the well. For 10 point titrations, 3-fold serial dilutions are conducted from the starting concentration. All ATP Solutions are diluted to a 4× working concentration in Kinase Buffer (50 mM HEPES pH 7.5, 0.01% BRIJ-35, 10 mM MgCl2, 1 mM EGTA). Peptide/Kinase Mixtures are diluted to a 2× working concentration in the appropriate Kinase Buffers as described below. (i) Peptide/Kinase Mixtures for Measurement of EGFR (ErbB1): The 2×EGFR (ErbB1)/[…] mixture is prepared in 50 mM HEPES pH 7.5, 0.01% BRIJ-35, 10 mM MgCl2, 4 mM MnCl2, 1 mM EGTA, 2 mM DTT. The final 10 μL Kinase Reaction consists of 1.1-5.25 ng EGFR (ErbB1) and 2 μM […] in 50 mM HEPES pH 7.5, 0.01% BRIJ-35, 10 mM MgCl2, 2 mM MnCl2, 1 mM EGTA, 1 mM DTT. After the 1 hour Kinase Reaction incubation, 5 μL of a 1:64 dilution of Development Reagent B is added. Reaction starts by 30-second shaking of mixture consisting of 2.5 μL 4× test compound, 5 μL 2× kinase reaction mixture and 2.5 μL 4×ATP Solution on Bar-coded Corning, low volume NBS, black 384-well plate (Corning Cat. #3676). […] Finally fluorescence is read by plate reader. […]

H1975 cells = assay: Inhibition of cancer cell growth, MTT assay, H1975; conditions: read-out: IC50 H1975, 72 h, EGFR L858R/T790M
Procedure: Inhibition of cell growth by compounds was measured using MTT assay (Mosmann, T., Journal of Immunological Methods, 1983, 65, 55-63). Tumor cell lines were purchased from ATCC (American Type Culture Collection, Manassas, Va.). All cell lines were maintained in RPMI 1640 (Hyclone) supplemented with 10% fetal bovine serum (FBS, Hyclone), glutamine (2 mM, Hyclone), and antibiotics (penicillin 100 U/mL and streptomycin 50 μg/mL) at 37° C. in a humidified atmosphere of 5% CO2 in air. Taxol (as a positive control, Sigma) and compounds were dissolved in DMSO (Sigma), and the final concentration of DMSO in the medium was 1%. Tumor cells were plated in 96-well plates at densities of about 4000 cells/well of a 96-well plate and allowed to adhere/grow for 24 h. They were then treated with various concentrations of drug for 72 h. […] The number of cells remaining after 72 h was compared to the number of viable cells at the time of compound addition by measuring the absorbance at 570 nm, allowing for the calculation of growth inhibition.
All concentrations of compounds were tested in triplicate and controls were averaged over 4 wells. IC50 was calculated by plotting the concentration of compound vs the percentage of inhibition in treated wells using GraphPad Prism 5. […]

BTK = BTK (Homo sapiens (Human), UniProt Q06187); assay: Z'-LYTE kinase inhibition assay, BTK; format: biochemical; conditions: read-out: % inhibition BTK; heading: % inhibition BTK; compound at 0.041 μM
Procedure: (§1) Inhibitory activities of compounds against BTK, EGFR and EGFR mutants (EGFR L858R, EGFR T790M, EGFR L858R/T790M), FGFR1, FGFR2, JAK2, JAK3 and KDR were measured by Invitrogen using Z′-LYTE® Method as briefly described in the following.
(§2) Test Compounds are screened in 1% DMSO (final) in the well. For 10 point titrations, 3-fold serial dilutions are conducted from the starting concentration. All ATP Solutions are diluted to a 4× working concentration in Kinase Buffer (50 mM HEPES pH 7.5, 0.01% BRIJ-35, 10 mM MgCl2, 1 mM EGTA). Peptide/Kinase Mixtures are diluted to a 2× working concentration in the appropriate Kinase Buffers as described below.
(v) Peptide/Kinase Mixtures for Measurement of BTK:
The 2×BTK/Tyr 01 mixture is prepared in 50 mM HEPES pH 7.5, 0.01% BRIJ-35, 10 mM MgCl2, 1 mM EGTA.
The mixture is then incubated for another 60-minute at room temperature for development reaction. Finally fluorescence is read by plate reader.
(§3) To determine IC50 of a compound against EGFR, EGFR mutant and other kinases, a series of concentrations of the compound were tested for the inhibition. […] The scale utilized in Table 4 is as follows: +++ less than 100 nM, ++ 100-500 nM and + greater than 500 nM.

FGFR1 = FGFR1 (Homo sapiens (Human), UniProt P11362); assay: Z'-LYTE kinase inhibition assay, FGFR1; format: biochemical; conditions: read-out: % inhibition FGFR1; heading: % inhibition FGFR1; compound at 0.041 μM
Procedure: as §1, §2
(v) Peptide/Kinase Mixtures for Measurement of FGFR1:
The 2×FGFR1/Tyr 04 mixture is prepared in 50 mM HEPES pH 7.5, 0.01% BRIJ-35, 10 mM MgCl2, 4 mM MnCl2, 1 mM EGTA, 2 mM DTT. The final 10 μL Kinase Reaction consists of 0.41-3.5 ng FGFR1 and 2 μM Tyr 04 in 50 mM HEPES pH 7.5, 0.01% BRIJ-35, 10 mM MgCl2, 2 mM MnCl2, 1 mM EGTA, 1 mM DTT. After the 1 hour Kinase Reaction incubation, 5 μL of a 1:64 dilution of Development Reagent B is added.
(§4) Reaction starts by 30-second shaking of mixture consisting of 2.5 μL 4× test compound, 5 μL 2× kinase reaction mixture and 2.5 μL 4×ATP Solution on Bar-coded Corning, low volume NBS, black 384-well plate (Corning Cat. #3676). Then the mixture is incubated for 60-minute at room temperature for the kinase reaction, followed by addition of 5 μL of a 1:1024 dilution of development reagent A and 30-second plate shake. The mixture is then incubated for another 60-minute at room temperature for development reaction. Finally fluorescence is read by plate reader.
as §3

JAK2 = JAK2 (Homo sapiens (Human), UniProt O60674); assay: Z'-LYTE kinase inhibition assay, JAK2; format: biochemical; conditions: read-out: % inhibition JAK2; heading: % inhibition JAK2; compound at 0.041 μM
Procedure: as §1, §2
(v) Peptide/Kinase Mixtures for Measurement of JAK2:
The 2×JAK2/Tyr 06 mixture is prepared in 50 mM HEPES pH 7.5, 0.01% BRIJ-35, 10 mM MgCl2, 1 mM EGTA. The final 10 μL Kinase Reaction consists of 0.06-0.81 ng JAK2 and 2 μM Tyr 06 in 50 mM HEPES pH 7.5, 0.01% BRIJ-35, 10 mM MgCl2, 1 mM EGTA. After the 1 hour Kinase Reaction incubation, 5 μL of a 1:64 dilution of Development Reagent A is added.
as §4

BTK, sequence (Q06187 whole entry): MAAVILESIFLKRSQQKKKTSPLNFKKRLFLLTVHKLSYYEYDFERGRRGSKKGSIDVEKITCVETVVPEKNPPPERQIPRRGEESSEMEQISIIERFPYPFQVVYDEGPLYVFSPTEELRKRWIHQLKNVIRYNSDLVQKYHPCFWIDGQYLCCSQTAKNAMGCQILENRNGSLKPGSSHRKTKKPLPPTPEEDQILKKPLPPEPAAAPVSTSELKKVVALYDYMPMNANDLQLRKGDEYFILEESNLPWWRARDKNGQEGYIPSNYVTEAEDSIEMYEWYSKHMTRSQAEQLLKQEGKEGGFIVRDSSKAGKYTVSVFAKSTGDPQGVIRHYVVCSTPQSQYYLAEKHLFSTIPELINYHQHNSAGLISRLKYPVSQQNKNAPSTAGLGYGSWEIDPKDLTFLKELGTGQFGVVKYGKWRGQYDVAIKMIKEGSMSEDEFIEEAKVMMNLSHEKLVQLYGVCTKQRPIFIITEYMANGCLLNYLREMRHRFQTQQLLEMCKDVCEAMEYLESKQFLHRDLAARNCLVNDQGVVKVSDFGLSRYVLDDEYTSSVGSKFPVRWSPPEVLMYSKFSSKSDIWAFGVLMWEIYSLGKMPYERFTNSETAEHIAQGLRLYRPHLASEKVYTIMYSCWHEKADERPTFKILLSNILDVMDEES
EGFR (ErbB1) T790M L858R, sequence (P00533 25-1210 T790M/L858R): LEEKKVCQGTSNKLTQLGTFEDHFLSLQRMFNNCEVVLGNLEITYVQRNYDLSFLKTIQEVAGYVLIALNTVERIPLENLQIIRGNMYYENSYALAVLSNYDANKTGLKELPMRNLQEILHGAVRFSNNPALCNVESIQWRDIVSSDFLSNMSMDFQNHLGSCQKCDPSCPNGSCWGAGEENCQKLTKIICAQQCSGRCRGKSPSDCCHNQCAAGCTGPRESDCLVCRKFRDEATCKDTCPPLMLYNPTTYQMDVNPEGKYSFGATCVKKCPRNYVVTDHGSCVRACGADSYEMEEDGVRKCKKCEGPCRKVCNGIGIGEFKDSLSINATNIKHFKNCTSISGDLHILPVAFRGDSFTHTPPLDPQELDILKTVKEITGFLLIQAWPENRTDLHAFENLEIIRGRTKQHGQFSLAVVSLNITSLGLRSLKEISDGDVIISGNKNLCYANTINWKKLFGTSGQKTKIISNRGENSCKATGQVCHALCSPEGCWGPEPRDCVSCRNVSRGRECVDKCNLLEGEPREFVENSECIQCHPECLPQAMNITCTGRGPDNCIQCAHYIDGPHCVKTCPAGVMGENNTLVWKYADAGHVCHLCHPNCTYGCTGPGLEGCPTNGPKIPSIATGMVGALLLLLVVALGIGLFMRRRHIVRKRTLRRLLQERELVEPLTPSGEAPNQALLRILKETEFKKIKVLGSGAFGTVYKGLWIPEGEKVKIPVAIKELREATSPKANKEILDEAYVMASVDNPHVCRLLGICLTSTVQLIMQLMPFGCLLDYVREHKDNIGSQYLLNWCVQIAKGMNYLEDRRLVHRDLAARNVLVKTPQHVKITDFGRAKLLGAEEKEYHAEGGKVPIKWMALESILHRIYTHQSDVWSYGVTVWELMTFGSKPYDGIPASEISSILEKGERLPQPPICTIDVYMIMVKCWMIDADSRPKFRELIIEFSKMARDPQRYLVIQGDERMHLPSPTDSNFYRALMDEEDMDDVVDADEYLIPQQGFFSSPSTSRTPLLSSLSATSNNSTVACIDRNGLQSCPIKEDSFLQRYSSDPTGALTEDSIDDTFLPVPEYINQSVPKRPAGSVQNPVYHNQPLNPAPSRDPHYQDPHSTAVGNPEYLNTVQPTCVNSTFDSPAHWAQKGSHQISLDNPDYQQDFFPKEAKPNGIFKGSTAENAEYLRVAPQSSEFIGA
JAK2, sequence (O60674 whole entry): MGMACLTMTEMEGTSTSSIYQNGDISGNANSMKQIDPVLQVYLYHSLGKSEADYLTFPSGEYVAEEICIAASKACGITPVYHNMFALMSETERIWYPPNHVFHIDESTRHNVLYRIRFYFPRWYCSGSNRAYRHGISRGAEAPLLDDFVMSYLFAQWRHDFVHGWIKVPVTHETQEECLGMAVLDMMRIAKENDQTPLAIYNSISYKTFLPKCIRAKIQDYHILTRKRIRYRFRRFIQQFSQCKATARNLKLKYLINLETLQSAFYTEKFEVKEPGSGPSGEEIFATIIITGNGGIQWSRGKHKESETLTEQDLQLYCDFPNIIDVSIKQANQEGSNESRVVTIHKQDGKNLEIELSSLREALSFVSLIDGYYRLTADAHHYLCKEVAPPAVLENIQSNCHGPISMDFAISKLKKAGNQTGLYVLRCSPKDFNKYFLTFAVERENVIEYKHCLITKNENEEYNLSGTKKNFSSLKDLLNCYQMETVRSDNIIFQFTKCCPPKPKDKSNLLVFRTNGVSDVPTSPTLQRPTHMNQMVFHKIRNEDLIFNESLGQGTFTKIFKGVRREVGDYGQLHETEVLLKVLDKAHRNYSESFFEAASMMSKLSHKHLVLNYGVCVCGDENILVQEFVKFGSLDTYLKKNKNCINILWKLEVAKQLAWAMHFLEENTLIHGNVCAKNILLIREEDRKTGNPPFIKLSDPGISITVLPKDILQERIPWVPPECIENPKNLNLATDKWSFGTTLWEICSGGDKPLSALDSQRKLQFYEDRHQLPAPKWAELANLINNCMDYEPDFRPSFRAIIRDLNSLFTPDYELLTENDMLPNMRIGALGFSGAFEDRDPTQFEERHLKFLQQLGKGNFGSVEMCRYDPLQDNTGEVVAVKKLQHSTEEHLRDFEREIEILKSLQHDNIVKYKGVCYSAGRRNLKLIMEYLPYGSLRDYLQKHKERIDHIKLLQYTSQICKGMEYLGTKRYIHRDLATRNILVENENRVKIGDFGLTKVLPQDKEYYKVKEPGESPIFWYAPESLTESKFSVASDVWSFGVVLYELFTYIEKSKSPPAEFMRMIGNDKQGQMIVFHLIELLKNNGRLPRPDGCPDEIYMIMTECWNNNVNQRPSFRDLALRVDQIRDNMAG
FGFR1, sequence (P11362 22-822): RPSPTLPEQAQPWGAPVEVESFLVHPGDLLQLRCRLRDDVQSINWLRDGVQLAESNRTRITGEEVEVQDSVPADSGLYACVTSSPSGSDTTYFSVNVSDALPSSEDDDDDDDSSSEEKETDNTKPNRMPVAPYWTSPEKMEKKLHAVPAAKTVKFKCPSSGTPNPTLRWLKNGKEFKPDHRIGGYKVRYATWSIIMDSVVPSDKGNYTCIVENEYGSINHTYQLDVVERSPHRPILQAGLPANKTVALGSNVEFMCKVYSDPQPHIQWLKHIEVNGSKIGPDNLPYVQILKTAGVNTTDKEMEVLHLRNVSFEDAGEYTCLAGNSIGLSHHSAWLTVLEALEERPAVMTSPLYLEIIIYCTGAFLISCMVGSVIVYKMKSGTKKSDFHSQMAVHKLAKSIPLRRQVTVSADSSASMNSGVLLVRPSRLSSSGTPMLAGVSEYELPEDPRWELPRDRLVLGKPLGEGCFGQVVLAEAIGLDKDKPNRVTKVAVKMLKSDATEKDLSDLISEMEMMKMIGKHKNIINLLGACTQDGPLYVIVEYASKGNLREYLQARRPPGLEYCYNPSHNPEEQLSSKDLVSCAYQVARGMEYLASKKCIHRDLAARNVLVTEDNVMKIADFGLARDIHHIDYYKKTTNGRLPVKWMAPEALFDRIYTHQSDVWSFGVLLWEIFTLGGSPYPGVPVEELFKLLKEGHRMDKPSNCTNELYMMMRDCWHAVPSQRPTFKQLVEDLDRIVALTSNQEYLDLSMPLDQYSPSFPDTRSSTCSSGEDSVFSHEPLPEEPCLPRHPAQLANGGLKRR
EGFR (ErbB1), sequence (P00533 25-1210): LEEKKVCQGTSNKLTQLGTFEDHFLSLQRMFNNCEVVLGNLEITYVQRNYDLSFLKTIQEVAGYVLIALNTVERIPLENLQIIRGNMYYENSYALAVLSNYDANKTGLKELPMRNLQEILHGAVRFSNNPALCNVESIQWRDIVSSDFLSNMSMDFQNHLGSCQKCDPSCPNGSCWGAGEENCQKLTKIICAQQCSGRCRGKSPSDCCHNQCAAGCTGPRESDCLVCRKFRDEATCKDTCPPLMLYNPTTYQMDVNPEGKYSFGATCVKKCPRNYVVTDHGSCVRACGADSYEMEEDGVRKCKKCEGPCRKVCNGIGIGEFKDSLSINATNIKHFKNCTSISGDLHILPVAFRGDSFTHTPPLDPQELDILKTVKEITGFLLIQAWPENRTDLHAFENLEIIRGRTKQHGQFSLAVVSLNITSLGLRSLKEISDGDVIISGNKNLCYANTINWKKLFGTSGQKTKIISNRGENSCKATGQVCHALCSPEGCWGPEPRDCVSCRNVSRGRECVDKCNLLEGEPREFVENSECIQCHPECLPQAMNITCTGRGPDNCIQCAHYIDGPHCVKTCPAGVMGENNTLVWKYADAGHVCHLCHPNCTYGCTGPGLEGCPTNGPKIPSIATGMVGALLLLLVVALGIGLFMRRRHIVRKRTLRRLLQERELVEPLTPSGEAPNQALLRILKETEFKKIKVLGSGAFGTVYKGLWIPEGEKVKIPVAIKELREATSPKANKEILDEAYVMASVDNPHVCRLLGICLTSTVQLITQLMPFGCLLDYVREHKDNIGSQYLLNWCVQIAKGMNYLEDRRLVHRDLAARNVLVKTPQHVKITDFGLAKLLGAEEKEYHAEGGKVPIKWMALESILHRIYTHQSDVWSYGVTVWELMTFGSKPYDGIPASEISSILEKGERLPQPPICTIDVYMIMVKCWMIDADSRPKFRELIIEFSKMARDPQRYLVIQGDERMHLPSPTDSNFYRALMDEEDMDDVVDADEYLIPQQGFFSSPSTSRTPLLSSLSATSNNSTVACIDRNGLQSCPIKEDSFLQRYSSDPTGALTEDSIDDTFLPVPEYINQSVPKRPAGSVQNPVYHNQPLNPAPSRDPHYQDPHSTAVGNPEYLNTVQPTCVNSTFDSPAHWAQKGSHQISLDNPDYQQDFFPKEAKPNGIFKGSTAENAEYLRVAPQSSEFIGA

Compound: C=CC(=O)Nc1cccc(-c2cccc3cnc(Nc4ccc(N5CCN(CCO)CC5)cc4F)nc23)c1 [Example C147, N-(3-(2-((2-fluoro-4-(4-(2-hydroxyethyl)piperazin-1-yl)phenyl)amino)quinazolin-8-yl)phenyl)acrylamide]
inhibition at 0.0137 µM (EGFR (ErbB1) T790M L858R): > 50% | Tumor Volume Post-treatment (H1975 tumor xenograft): 898 mm^3 | Tumor Volume Pre-treatment (H1975 tumor xenograft): 240 mm^3

Compound: C=CC(=O)Nc1cccc(-c2cccc3cnc(Nc4ccc(N5CCN(CC(N)=O)CC5)c(F)c4)nc23)c1 [Example C164]
% inhibition EGFR (Compound at 0.041 μM) (EGFR (ErbB1)): + (less than 50% inhibition) | pIC50 (H1975 cells): 6.30 to 7.00 | % inhibition EGFR L858R/T790M (Compound at 0.0137 μM) (EGFR (ErbB1) T790M L858R): + (less than 50% inhibition)

Compound: C=CC(=O)Nc1cccc(-c2cccc3cnc(Nc4ccc(N5CCN(CC(N)=O)CC5)cc4F)nc23)c1 [Example C154]
% inhibition EGFR (Compound at 0.041 μM) (EGFR (ErbB1)): + (less than 50% inhibition) | pIC50 (H1975 cells): 6.30 to 7.00 | % inhibition EGFR L858R/T790M (Compound at 0.0137 μM) (EGFR (ErbB1) T790M L858R): + (less than 50% inhibition)

Compound: C=CC(=O)Nc1cccc(-c2cccc3cnc(Nc4ccc(N5CCN(C)CC5)c(F)c4F)nc23)c1 [Example C156, N-(3-(2-((2,3-difluoro-4-(4-methylpiperazin-1-yl)phenyl)amino)quinazolin-8-yl)phenyl)acrylamide]
Tumor Volume Post-treatment (H1975 tumor xenograft): 594 mm^3 | Tumor Volume Pre-treatment (H1975 tumor xenograft): 232 mm^3

Compound: C=CC(=O)Nc1cccc(-c2cccc3cnc(Nc4ccc(N5CCN(CCO)CC5)c(F)c4F)nc23)c1 [Example C151, N-(3-(2-((2,3-difluoro-4-(4-(2-hydroxyethyl)piperazin-1-yl)phenyl)amino)quinazolin-8-yl)phenyl)acrylamide]
inhibition at 0.0137 µM (EGFR (ErbB1) T790M L858R): > 50% | Tumor Volume Post-treatment (H1975 tumor xenograft): 462 mm^3 | Tumor Volume Pre-treatment (H1975 tumor xenograft): 229 mm^3

Compound: C=CC(=O)Nc1cccc(-c2cccc3cnc(Nc4ccc(N5CCN(C)CC5)c(OC)c4)nc23)c1 [Example C075, N-(3-(2-((3-methoxy-4-(4-methylpiperazin-1-yl)phenyl)amino)quinazolin-8-yl)phenyl)acrylamide]
inhibition at 0.041 µM (FGFR1): > 50%

Compound: C=CC(=O)Nc1cccc(-c2cccc3cnc(Nc4ccc(N5CCN(CCO)CC5)cc4)nc23)c1 [Example C059, N-(3-(2-((4-(4-(2-hydroxyethyl)piperazin-1-yl)phenyl)amino)quinazolin-8-yl)phenyl)acrylamide]
inhibition at 0.041 µM (FGFR1): > 50% | inhibition at 0.0137 µM (EGFR (ErbB1) T790M L858R): > 50%

The next lines start with the values.

inhibition at 0.041 µM (BTK): < 50% | inhibition at 0.041 µM (FGFR1): < 50% | inhibition at 0.041 µM (JAK2): < 50%
Compound: Fc1ccc(OCCN2CCOCC2)cc1-c1cccc2cnc(Nc3ccc(N4CCOCC4)cc3)nc12 [Example C023, 8-(2-fluoro-5-(2-morpholinoethoxy)phenyl)-N-(4-morpholinophenyl)quinazolin-2-amine]

inhibition at 0.041 µM (BTK): > 50% | inhibition at 0.041 µM (FGFR1): > 50% | inhibition at 0.041 µM (JAK2): > 50%
Compound: C=CC(=O)Nc1cccc(-c2cccc3cnc(Nc4ccc(N5CCOCC5)cc4)nc23)c1 [Example C001, N-(3-(2-((4-morpholinophenyl)amino)quinazolin-8-yl)phenyl)acrylamide]

inhibition at 0.041 µM (BTK): > 50% | inhibition at 0.041 µM (FGFR1): > 50% | inhibition at 0.041 µM (JAK2): > 50%
Compound: C=CC(=O)Nc1cccc(-c2cccc3cnc(Nc4ccc(N5CCN(CCF)CC5)cc4)nc23)c1 [Example C053, N-(3-(2-((4-(4-(2-fluoroethyl)piperazin-1-yl)phenyl)amino)quinazolin-8-yl)phenyl)acrylamide]

inhibition at 0.041 µM (BTK): < 50% | inhibition at 0.041 µM (FGFR1): < 50%
Compound: Clc1cccc(-c2cccc3cnc(Nc4ccc(N5CCOCC5)cc4)nc23)c1 [Example C008, 8-(3-chlorophenyl)-N-(4-morpholinophenyl)quinazolin-2-amine]
